Like-named read-outs stand apart in the source and are kept apart here.
How the values were obtained:
Assay in all cases: Ras GTP binding domain inhibition assay (labeled GTP)
KRas G12D mutant protein = KRas G12D mutant protein (Homo sapiens (Human), UniProt P01116, G12D); settings: 20 μM compound
KRas G12C mutant = KRas G12C mutant (Homo sapiens (Human), UniProt P01116, G12C); settings: 20 μM compound
Outline: (§1)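 Labelled-GTP binding: plate-captured His-KRas protein was pre-exposed to compound for 3 h at room temperature (single 20 μM point or dilution series, 1% DMSO, Tris pH 7.5/MgCl2/DTT buffer). Cy3- or Cy5-GTP was then added for 45 min. Washed wells were read for retained fluorescence to give inhibition or IC50.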

[1] = target: KRas G12C/Q61H double mutant (Homo sapiens (Human), UniProt P01116, G12C/Q61H); settings: 20 μM compound
Sequence of KRas G12C/Q61H double mutant (P01116-2 other isoform, or with tags, fused parts or gaps G12C/Q61H): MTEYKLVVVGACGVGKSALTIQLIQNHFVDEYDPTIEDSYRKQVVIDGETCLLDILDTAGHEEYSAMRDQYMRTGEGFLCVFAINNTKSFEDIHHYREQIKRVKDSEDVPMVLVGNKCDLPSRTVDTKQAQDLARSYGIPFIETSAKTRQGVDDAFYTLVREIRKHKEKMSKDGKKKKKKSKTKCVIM
Outline: as §1

[2] = target: KRas G12D/Q61H double mutant (Homo sapiens (Human), UniProt P01116, G12D/Q61H); settings: for inhibition at 20 µM: 20 μM compound; for IC50: serial dilution, read-out: KRas G12D Q61H (classes E-H, IC50)
Sequence of KRas G12D/Q61H double mutant (P01116-2 other isoform, or with tags, fused parts or gaps G12D/Q61H): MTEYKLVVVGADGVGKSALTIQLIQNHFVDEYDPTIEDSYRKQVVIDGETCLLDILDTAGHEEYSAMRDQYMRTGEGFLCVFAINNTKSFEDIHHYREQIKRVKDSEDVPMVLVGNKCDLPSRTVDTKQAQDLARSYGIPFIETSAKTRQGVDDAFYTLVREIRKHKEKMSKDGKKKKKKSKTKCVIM
Outline: as §1

KRas Q61H mutant = KRas Q61H mutant (Homo sapiens (Human), UniProt P01116, Q61H); settings: 20 μM compound
Sequence of KRas Q61H mutant (P01116-2 other isoform, or with tags, fused parts or gaps Q61H): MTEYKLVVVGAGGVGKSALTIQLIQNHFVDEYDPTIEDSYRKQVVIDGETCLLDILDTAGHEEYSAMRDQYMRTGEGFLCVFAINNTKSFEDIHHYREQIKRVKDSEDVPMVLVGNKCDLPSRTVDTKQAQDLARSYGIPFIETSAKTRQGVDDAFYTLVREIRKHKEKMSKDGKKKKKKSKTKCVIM
Outline: as §1

KRas wild type = KRas wild type (Homo sapiens (Human), UniProt P01116); settings: 20 μM compound
Sequence of KRas wild type (P01116-2 other isoform, or with tags, fused parts or gaps): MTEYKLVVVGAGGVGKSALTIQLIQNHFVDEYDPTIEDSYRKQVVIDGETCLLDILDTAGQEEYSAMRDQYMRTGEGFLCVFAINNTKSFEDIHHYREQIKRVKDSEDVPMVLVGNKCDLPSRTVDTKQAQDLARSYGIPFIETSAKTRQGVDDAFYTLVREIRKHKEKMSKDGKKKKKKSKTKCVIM
Outline: as §1

[3] = KRas G12D, read-out: % Inhibition at 20 μM of K-Ras mutant and wild-type protein, KRas G12D
[4] = KRas G12C, read-out: % Inhibition at 20 μM of K-Ras mutant and wild-type protein, KRas G12C
[5] = KRas G12C/Q61H double mutant, read-out: % Inhibition at 20 μM of K-Ras mutant and wild-type protein, KRas G12C Q61H
[6] = KRas G12D/Q61H double mutant, read-out: % Inhibition at 20 μM of K-Ras mutant and wild-type protein, KRas G12D Q61H
[7] = KRas Q61H, read-out: % Inhibition at 20 μM of K-Ras mutant and wild-type protein, KRas Q61H
[8] = KRas wild type, read-out: % Inhibition at 20 μM of K-Ras mutant and wild-type protein, KRas wild type
[9] = read-out: % Inhibition at 20 μM KRas G12D
[10] = read-out: % Inhibition at 20 μM KRas G12C
[11] = read-out: % Inhibition at 20 μM KRas G12C Q61H
[12] = read-out: % Inhibition at 20 μM KRas G12D Q61H
[13] = read-out: % Inhibition at 20 μM KRas Q61H
[14] = read-out: % Inhibition at 20 μM KRas wild type

Sequence of KRas G12C mutant (P01116-2 other isoform, or with tags, fused parts or gaps G12C): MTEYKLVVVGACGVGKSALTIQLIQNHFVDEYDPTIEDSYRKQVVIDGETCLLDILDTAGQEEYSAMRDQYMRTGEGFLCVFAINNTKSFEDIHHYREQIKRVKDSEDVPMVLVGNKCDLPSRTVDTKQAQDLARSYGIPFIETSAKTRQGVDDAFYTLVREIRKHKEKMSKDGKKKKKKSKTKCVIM
Sequence of KRas G12D mutant protein (P01116-2 other isoform, or with tags, fused parts or gaps G12D): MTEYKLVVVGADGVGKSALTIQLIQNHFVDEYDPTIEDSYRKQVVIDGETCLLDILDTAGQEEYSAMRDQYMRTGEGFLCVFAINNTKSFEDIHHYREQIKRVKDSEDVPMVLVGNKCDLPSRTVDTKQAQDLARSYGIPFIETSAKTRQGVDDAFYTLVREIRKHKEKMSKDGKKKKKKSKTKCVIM

Row | Compound | inhibition at 20 µM (KRas G12D mutant protein; [3]) [%] | inhibition at 20 µM (KRas G12C mutant; [4]) [%] | inhibition at 20 µM [1, 5] [%] | inhibition at 20 µM [2, 6] [%] | inhibition at 20 µM (KRas Q61H mutant; [7]) [%] | inhibition at 20 µM (KRas wild type; [8]) [%] | inhibition at 20 µM (KRas G12D mutant protein; [9]) [%] | inhibition at 20 µM (KRas G12C mutant; [10]) [%] | inhibition at 20 µM [1, 11] [%] | inhibition at 20 µM [2, 12] [%] | inhibition at 20 µM (KRas Q61H mutant; [13]) [%] | inhibition at 20 µM (KRas wild type; [14]) [%] | IC50 [2] [µM]
1 | COc1cnc(-c2ccccn2)nc1O [drawing 3469] | 51 to 75 | 76 to 100 | 76 to 100 | 51 to 75 | 51 to 75 | 25 to 50 | – | – | – | – | – | – | –
2 | Oc1nc(-c2ccccn2)nc2c1c(-c1ccccc1)nn2-c1ccccn1 [drawing 3539] | 51 to 75 | 51 to 75 | 51 to 75 | 51 to 75 | 51 to 75 | 25 to 50 | – | – | – | – | – | – | –
3 | Oc1nc(-c2ccccn2)nc2c(-c3cc(Cl)cc(Cl)c3)csc12 [drawing 2848] | – | – | – | – | – | – | 25 to 50 | 25 to 50 | 1 to 25 | 25 to 50 | 25 to 50 | 1 to 25 | –
4 | COc1nc(-c2cn(C)cn2)nc2sc(-c3ccncc3)c(-c3ccccc3)c12 [drawing 3531] | 25 to 50 | 25 to 50 | 1 to 25 | 25 to 50 | 25 to 50 | 1 to 25 | – | – | – | – | – | – | –
5 | Cc1sc2c(O)nc(-c3ccccn3)nc2c1-c1ccncc1 [drawing 3497] | 51 to 75 | 25 to 50 | 25 to 50 | 51 to 75 | 51 to 75 | 1 to 25 | – | – | – | – | – | – | –
6 | Oc1nc(-c2ccccn2)nc2sccc12 [drawing 2704] | – | – | – | – | – | – | 25 to 50 | 25 to 50 | 51 to 75 | 51 to 75 | 51 to 75 | 25 to 50 | 11 to 30
7 | O=C(c1cc2nc(-c3ccccn3)nc(O)c2s1)N1CCN(c2ccccc2)CC1 [drawing 2841] | – | – | – | – | – | – | 51 to 75 | 51 to 75 | 51 to 75 | 51 to 75 | 51 to 75 | 51 to 75 | –
8 | COc1cccc(CN2CCN(C(=O)c3csc4c(O)nc(-c5ccccn5)nc34)CC2)c1 [drawing 2763] | – | – | – | – | – | – | 76 to 100 | 25 to 50 | 76 to 100 | 25 to 50 | 76 to 100 | 25 to 50 | –
9 | Oc1nc(-c2ccccn2)nc2c(-c3cccc4c3OCO4)csc12 [drawing 2849] | – | – | – | – | – | – | 25 to 50 | 25 to 50 | 25 to 50 | 51 to 75 | 51 to 75 | 25 to 50 | –
10 | CC1CN(c2ccccc2)CCN1C(=O)c1csc2c(O)nc(-c3ccccn3)nc12 (centres unmarked) [drawing 2761] | – | – | – | – | – | – | 76 to 100 | 51 to 75 | 76 to 100 | 51 to 75 | 76 to 100 | 25 to 50 | 5 to 10
11 | Oc1nc(-c2ccccn2)nc2c(C3CC3)csc12 [drawing 3518] | 51 to 75 | 25 to 50 | 1 to 25 | 25 to 50 | 25 to 50 | 25 to 50 | – | – | – | – | – | – | –
12 | O=C(CCc1nn[nH]n1)Nc1nc(-c2ccccn2)nc2sccc12 [drawing 2890] | – | – | – | – | – | – | 51 to 75 | 25 to 50 | 51 to 75 | 51 to 75 | 51 to 75 | 51 to 75 | –
13 | Nc1cccc(-c2csc3c(O)nc(-c4ccccn4)nc23)n1 [drawing 3514] | 51 to 75 | 25 to 50 | 51 to 75 | 51 to 75 | 76 to 100 | 51 to 75 | – | – | – | – | – | – | –
14 | CNC(=O)c1ccc(-c2csc3c(O)nc(-c4ccccn4)nc23)cc1C [drawing 2885] | – | – | – | – | – | – | 25 to 50 | 25 to 50 | 25 to 50 | 25 to 50 | 25 to 50 | 25 to 50 | –
15 | COc1cccc(-c2csc3c(O)nc(-c4ccccn4)nc23)c1 [drawing 2872] | – | – | – | – | – | – | 76 to 100 | 25 to 50 | 1 to 25 | 25 to 50 | 1 to 25 | 51 to 75 | –
16 | COc1cnc(-c2cn(C)cn2)nc1O [drawing 3496] | 51 to 75 | 51 to 75 | 51 to 75 | 51 to 75 | 76 to 100 | 25 to 50 | – | – | – | – | – | – | –
17 | Oc1nc(-c2ccccn2)nc2c(-c3cc(CN4CCCC4)ccc3F)csc12 [drawing 3502] | 76 to 100 | 51 to 75 | 51 to 75 | 51 to 75 | 76 to 100 | 25 to 50 | – | – | – | – | – | – | –
18 | Oc1nc(-c2ccccn2)nc2c(-c3cc(F)ccc3OC(F)F)csc12 [drawing 2860] | – | – | – | – | – | – | 51 to 75 | 25 to 50 | 25 to 50 | 25 to 50 | 51 to 75 | 1 to 25 | –
19 | COCC(C)Nc1nc(-c2ccccn2)nc2sc(-c3ccncc3)c(-c3ccccc3)c12 (centres unmarked) [drawing 3541] | 25 to 50 | 51 to 75 | 25 to 50 | 51 to 75 | 51 to 75 | 25 to 50 | – | – | – | – | – | – | –
20 | Cc1cnc(-c2ccccn2)nc1NC(=O)Cc1ccc2cnccc2c1 [drawing 2856] | – | – | – | – | – | – | 51 to 75 | 25 to 50 | 51 to 75 | 51 to 75 | 51 to 75 | 51 to 75 | –
21 | O=C(COCc1cccnc1)Nc1nc(-c2ccccn2)nc2sccc12 [drawing 2829] | – | – | – | – | – | – | 51 to 75 | 51 to 75 | 76 to 100 | 51 to 75 | 76 to 100 | 51 to 75 | –
22 | COc1ccc(F)cc1-c1csc2c(O)nc(-c3ccccn3)nc12 [drawing 2874] | – | – | – | – | – | – | 51 to 75 | 25 to 50 | 25 to 50 | 51 to 75 | 25 to 50 | 25 to 50 | –
